Measured values published in US20250176548A1, “POLYMERIC IMIDAZOLIUM COMPOUNDS FOR ENHANCING THE ACTIVITY OF ANTIMICROBIAL AGENTS” (BASF SE, priority 2022, published 2025).

Tests used:
[1] = tested on: Escherichia coli (E. coli DSM 682); test: Bactericidal activity of cleaner/disinfecting formulations, DIN EN 1276-2010, dirty conditions; format: cell-based; conditions: 0.3% bovine albumin, 35° C., 5 min contact time
Method: (§1) For biological activity testing, the following microorganisms were used: • Escherichia coli(E. coli DSM 682) • Salmonella enterica subsp. enterica (S enterica ATCC 10708)
(§2) The imidazolium polymer of example 1 (imidazolium polymer 1) and benzalkonium chloride (BAC) were formulated into various dilutable concentrated hard-surface cleaners. The finished formulations were pre-dissolved 1:200 in standardized hard water (DIN EN 1276-2010) and then diluted to 80% by adding 1 ml of the inoculate and 1 ml of bovine albumin solution to 8 ml of the pre-dissolved cleaner, so that in-test a dilution of 1:250 was obtained. The amounts relate to active substance.
(§3) Antimicrobial testing of the above formulations in 1:250 dilution was done according to European Standard (DIN EN 1276-2010) under dirty conditions, i.e. additional soiling of 0.3% bovine albumin at 35° C. and 5 min contact time. Neutralization was done using the Saponin-containing neutralizer as described in DIN EN 1276 (30 g/l Polysorbate 80+30 g/l Saponin+3 g/l Lecithin). Results are documented in the table below as logarithmic reduction (Ig R) in comparison to the number of microorganisms used for the test.
as §2, with “didecyldimethylammonium” for “benzalkonium”, “(DDAC)” for “(BAC)”
as §3, with “80+30 g/I” for “80+30 g/l”, “Saponin+3 g/I” for “Saponin+3 g/l”

[2] = tested on: Salmonella enterica subsp. enterica (S enterica ATCC 10708); test: as above; format: cell-based; conditions: BAC 40 ppm in cleaner diluted 1:250; 0.3% bovine albumin, 35° C., 5 min contact time
Method: as §1, §2, §3

Structure (SMILES) | E. coli logarithmic reduction (lg R) ([1]; DDAC 10 ppm in cleaner diluted 1:250) | E. coli logarithmic reduction (lg R) ([1]; DDAC 20 ppm in cleaner diluted 1:250) | S. enterica logarithmic reduction (lg R) [2] | E. coli logarithmic reduction (lg R) ([1]; BAC 20 ppm in cleaner diluted 1:250) | E. coli logarithmic reduction (lg R) ([1]; BAC 40 ppm in cleaner diluted 1:250)
CCCCCCCCCC[N+](C)(C)CCCCCCCCCC.[Cl-] [DDAC, didecyldimethylammonium chloride] | 0.2 lg R | 1.2 lg R | – | – | –
CCCCCCCCCCCC[N+](C)(C)Cc1ccccc1.[Cl-] [BAC, lauryl dimethyl benzyl ammonium chloride] | – | – | 0.5 lg R | 0.5 lg R | 2.7 lg R
